According to US7166581B1, “Treatment of chemotherapeutic agent and antiviral agent toxicity with acylated pyrimidine nucleosides” (Wellstat Therapeutics Corporation, priority 1987, dated 2007):

How the values were obtained:
[1] = tested on: hematopoietic system (5-FU toxicity); experiment: Acyl derivatives of uridine i.p. vs bone marrow toxicity of 5-FU (Example 3); type: in vivo, female Balb/C mice; details: for HCT % / Lym / Neut / RBC / WBC: eleven days after 5-FU
Description: Ninety-eight female Balb/C mice weighing approximately 20 grams each were given a one-time 150 mg/kg injection (i.p.) of 5-FU at 1 p.m. on the initial day of the study. […] All of these doses are equimolar, and were administered in a volume of 0.4 ml by i.p. injection. The groups were treated at 3:30, 6:00, and 8:30 p.m. on the initial day with their respective agents. […] On days seven and eleven following 5-FU administration, blood (0.2–0.3 ml) was collected from seven mice in each group by retro-orbital bleeding into EDTA for subsequent differential blood cell counting. Mice were sacrificed by cervical dislocation; their right femurs removed and the contents expelled for cell counting; and their spleens removed and weighed.

[2] = tested on: CD8F1 spontaneous breast tumors; experiment: TAU/uridine rescue with PALA-MTX-5-FU-LV combination chemotherapy in tumor-bearing mice (Example 6); type: in vivo, male CD8F1 mice; details: PALA-MTX-5-FU-LV weekly x3
Description: Forty male CD8F1 mice with transplanted CD8F1 spontaneous breast tumors (initial tumor weight of 155 mg) were treated weekly with the following regimen:
In order to evaluate and compare the efficacy of TAU and uridine, the mice were divided into four groups of ten animals each.
Saline, uridine, or TAU was administered every eight hours for a total of 5 treatments starting two hours after each weekly dose of 5-FU. This weekly regimen was repeated for three successive weeks. One week after the third course of chemotherapy regimen, mortality in each group was assessed and, where a sufficient number of animals survived, body weight and tumor weight were also measured.

[3] = tested on: hematopoietic system (5-FU toxicity); experiment: Oral TAU vs uridine rescue from 5-FU hematologic toxicity (Example 1); type: in vivo, female Balb/C mice
Description: Forty-five female Balb/C mice (20 grams each) were given 5-fluorouracil (150 mg/kg, i.p.) at 12:00 noon on the initial day of the experiment. These animals were then divided into 5 groups: control (water, p.o.), oral uridine at 400 mg/kg/dose, oral uridine at 800 mg/kg/dose, parenteral (i.p.) uridine at 400 mg/kg/dose, and oral TAU at 500 mg/kg/dose.
Two hours after administration of 5-FU, the rescue treatments with uridine or triacetyluridine were begun. Groups received their designated treatment at 2:00 p.m., 4:00 p.m., and 6:00 p.m. on the day of 5-FU administration, and at 9 a.m., 11:00 a.m., 1:00 p.m., 3:00 p.m. and 5:00 p.m. on the following day. Each dose of uridine or TAU was administered in 0.2 ml of water by gavage or in 0.2 ml of saline by i.p. injection, as appropriate.
Mice were sacrificed by cervical dislocation; femurs were removed, and their cell contents were expelled for counting; spleens were also removed and weighed. […]

[4] = tested on: CD8F1 spontaneous mammary adenocarcinoma; experiment: TAU/uridine rescue with 5-FU alone in tumor-bearing mice (Example 5); type: in vivo
Description: Sixty CD8F1 (BALB/C×[…]) female mice with first generation transplants of CD8F1 spontaneous mammary adenocarcinoma were treated with a weekly chemotherapy regimen which included a single dose of 5-FU (150 mg/kg) followed by various rescue strategies. The average tumor size was 157 mg at the start of the chemotherapy. The weekly chemotherapy course was completed three times.
In order to evaluate the various rescue therapies, the animals were divided into six groups of ten animals each as follows: […]

[5] = day seven after 5-FU, TAU 455 mg/kg/treatment i.p.
[6] = oral uridine 4,000 or equimolar TAU 6,066 mg/kg every 8 h x5
[7] = 7 days after 5-FU 150 mg/kg i.p., oral, Urd 400 or equimolar TAU 500 mg/kg/dose
[8] = 7 days after 5-FU, oral, Urd 400 or equimolar TAU 500 mg/kg/dose
[9] = 11 days after 5-FU, oral, Urd 400 or equimolar TAU 500 mg/kg/dose
[10] = 5-FU 150 mg/kg i.p. weekly x3 + oral uridine 5,000 or equimolar TAU 7,582 mg/kg
[11] = 7 days after 5-FU, Urd 400 mg/kg/dose i.p.
[12] = 7 days after 5-FU, Urd 800 mg/kg/dose oral
[13] = 11 days after 5-FU, Urd 400 mg/kg/dose i.p.
[14] = 11 days after 5-FU, Urd 800 mg/kg/dose oral
[15] = 5-FU 150 mg/kg i.p. weekly x3 + uridine 3,500 mg/kg i.p.

## CC(=O)OC[C@H]1O[C@@H](n2ccc(=O)[nH]c2=O)[C@H](OC(C)=O)[C@@H]1OC(C)=O [TAU, triacetyluridine]
[1]; [5]
  bone marrow cellularity: 4.50±77 ×10^3 per microliter
  increase of bone marrow cellularity over control values: 40%
[1]; equimolar i.p. doses
  HCT %: 35.01 ± 1.2%
  Lym: 5.6 ± .4 K/μl
  Neut: .55 ± K/μl
  RBC: 7.35 ± .2 M/μl
  WBC: 6.23 ± .55 K/μl
[2]; oral TAU 6,066 mg/kg
  Average Final Tumor Weight: 162 mg
[2]; [6]
  Mortality: 1/10
[3]; [7]
  WBC: 5.9 ± .4 K/μl
[3]; [8]
  Lymphocytes: 4.72 ± .36 K/μl
  Marrow cell counts: 3.0 ± .5 × 10^6 × 10^6/femur
  Neutrophils: 1.20 K/μl
  Platelets: 723 K/μl
  RBC: 8.27 ± .16 M/μl
  Spleen weight: 78 ± 3.5 mg
[3]; [9]
  Lymphocytes: 3.29 ± .36 K/μl
  Neutrophils: 1.89 K/μl
  Platelets: 1446 K/μl
  RBC: 8.05 M/μl
  Spleen weight: 143 ± 11 mg
  WBC: 5.4 ± .5 K/μl
[4]; [10]
  Average Final Tumor Weight: 1,013 mg
  Mortality: 1/10

## O=c1ccn([C@@H]2O[C@H](CO)[C@@H](O)[C@H]2O)c(=O)[nH]1 [Urd, uridine]
[1]; day eleven after 5-FU, equimolar i.p. doses, in mg
  Spleen weights: 121.6±9.7
[1]; day seven after 5-FU 150 mg/kg i.p., i.p. doses equimolar to uridine 300 mg/kg/treatment
  Spleen weight: 80.4 ± 7.8 mg
[1]; day seven after 5-FU, equimolar i.p. doses
  Platelet counts: 785.3±57.5 ×10^3 per microliter
[1]; equimolar i.p. doses
  HCT %: 34.67 ± 0.9%
  Lym: 4.6 ± .4 K/μl
  Neut: .60 ± K/μl
  RBC: 7.32 ± .2 M/μl
  WBC: 5.20 ± .47 K/μl
[2]; [6]
  Mortality: 5/10
[2]; uridine 3,500 mg/kg i.p.
  Average Final Tumor Weight: 110 mg
[2]; uridine 3,500 mg/kg i.p. every 8 h x5
  Mortality: 0/10
[3]; [7]
  WBC: 4.4 ± .5 K/μl
[3]; [11]
  Lymphocytes: 3.80 ± .30 K/μl
  Marrow cell counts: 5.0 ± .7 × 10^6 × 10^6/femur
  Neutrophils: 0.83 ± .24 K/μl
  Platelets: 773 K/μl
  RBC: 8.06 ± .05 M/μl
  Spleen weight: 78 ± 5.5 mg
  WBC: 4.6 ± .4 K/μl
[3]; [12]
  Lymphocytes: 3.76 ± .27 K/μl
  Marrow cell counts: 2.9 ± .9 × 10^6 × 10^6/femur
  Neutrophils: 0.88 ± .22 K/μl
  Platelets: 646 K/μl
  RBC: 8.24 ± .26 M/μl
  Spleen weight: 74 ± 6.4 mg
  WBC: 4.6 ± .4 K/μl
[3]; [8]
  Lymphocytes: 3.01 ± .77 K/μl
  Marrow cell counts: 1.6 ± .2 × 10^6 × 10^6/femur
  Neutrophils: 0.48 ± .23 K/μl
  Platelets: 434 K/μl
  RBC: 7.66 ± .12 M/μl
  Spleen weight: 74 ± 2.4 mg
[3]; [13]
  Lymphocytes: 3.84 ± .38 K/μl
  Neutrophils: 1.20 ± .21 K/μl
  Platelets: 1706 K/μl
  RBC: 7.78 ± .22 M/μl
  Spleen weight: 104 ± 6 mg
  WBC: 5.1 ± .5 K/μl
[3]; [14]
  Lymphocytes: 4.07 ± .38 K/μl
  Neutrophils: 0.82 ± .19 K/μl
  Platelets: 2127 K/μl
  RBC: 7.33 ± .16 M/μl
  Spleen weight: 99 ± 6 mg
  WBC: 4.9 ± .4 K/μl
[3]; [9]
  Lymphocytes: 3.65 ± .27 K/μl
  Neutrophils: 0.84 ± .19 K/μl
  Platelets: 1940 K/μl
  RBC: 7.44 ± .14 M/μl
  Spleen weight: 103 ± 15 mg
  WBC: 4.6 ± .5 K/μl
[4]; [10]
  Average Final Tumor Weight: 896 mg
  Mortality: 0/10
[4]; [15]
  Average Final Tumor Weight: 1,604 mg
  Mortality: 1/10
